Data set [1] has as its system normal and infarcted myocardial tissue, blood. Nature of the data set: Proton T1 values of myocardium and blood in dogs with coronary occlusion (Example 10). Type of data set: in vivo, dog. As to conditions: for Blood T1: before 510.
For data set [2], the system named is tissue and blood protons of rabbits. Description: Tissue and blood proton T1 and T2 values in rabbits (Example 9). In kind it is in vivo, rabbit. As to conditions: 0.51 mmol/kg i.v., 15 min. The protocol: The EKG was recorded with surface electrodes.
Data set [3] has as its system mice. Nature of the data set: Acute intravenous toxicity in mice (Example 7). Type of data set: in vivo, Swiss CF-1 albino mouse. The source says: The acute intravenous toxicity of disodium (diethylenetriaminepentaacetato)gadolinium (III) (composition C of Example 1) was studied.
A total of 16 Swiss CF-1 albino mice (8 male, 22.0-25.6 g; 8 female, 18.2-24.1 g) were used. Picric acid markings were used for individual identification.
The protocol of Example 4 was used. Groups of 2-4 mice, with sexes equally represented, received single intravenous doses of the test substance according to the following schedule: […]

In data set [4] the test system is renal medulla and renal cortex. Description: Abdominal NMR imaging in rabbits (Example 11). Type of data set: in vivo, rabbit. The conditions noted are these: 0.3 ml/kg (0.5 mmol Gd(III)/kg) i.v. How it is done: Two rabbits were anesthetized and abdominal NMR images were obtained in the General Electric NMR scanner. Rabbits then received intravenous doses of 0.3 ml/kg (0.5 mmol Gd(III)/kg) of the preparation of composition D of Example 1 (GdNa2 DTPA) and additional abdominal NMR images were made over a period of two hours after dosing.

The test system of data set [5] is excised hearts (normal and infarcted tissues). Description: NMR imaging of excised hearts of dogs with coronary occlusion (Example 10). In kind it is in vivo, dog. As to conditions: 2 ml/kg (0.34 mmol Gd(III)/kg), 10 min. The protocol: Selective catheterization of the left anterior descending coronary artery or circumflex coronary artery was achieved via a percutaneous intracarotid artery approach in anesthetized dogs. Gelfoam plugs were inserted into the coronary artery, via the catheter, in order to produce coronary occlusion. Animals were treated with lidocaine to prevent coronary arrhythmias and morphine to relieve pain.

Several values for one entry are separate records, joined by “and”; a condition that tells them apart may be missing. Identical values can stand only once. Entries after “also recorded” stand apart in the source; their conditions may differ.

As for `O=C([O-])CN(CCN(CC(=O)[O-])CC(=O)[O-])CCN(CC(=O)[O-])CC(=O)[O-].[Gd+3].[Na+].[Na+]` [GdNa2 DTPA, disodium (diethylenetriaminepentaacetato)gadolinium (III)], the “T1, infarcted regions of heart muscle” value in data set [1] (0.17 mmol Gd(III)/kg i.v., 10 min) was 290 ms. The “T1, normally perfused myocardial tissue” value in data set [1] (0.17 mmol Gd(III)/kg i.v., 10 min, untreated 330) worked out at 180 ms. For the same compound, the “Blood T1” value in data set [1] (0.34 mmol Gd(III)/kg, 5 minutes) is 50 ms. Moreover, in data set [1] (0.34 mmol Gd(III)/kg, 10 min), the “T1, infarcted tissue” value is 230 ms. Besides, the “T1, normally perfused myocardium” value in data set [1] (0.34 mmol Gd(III)/kg, 10 min, untreated 330) came to 135 ms. In data set [1] (0.34 mmol Gd(III)/kg, 10 minutes), the “Blood T1” value is 100 ms. In addition, in data set [2], the “Mean tissue T1, Fat” value came out at 61 ms and the “Mean tissue T1, Renal Medulla” value came to 130 ms. Further, the “Dose up to which no deaths were observed” value in data set [3] (mouse, i.v.) is 12 g/kg and 12.0 g/kg. For the same compound, in data set [3] (mouse, in vivo), the Ataxia entry is recorded as “slight ataxia”, the “Body weight (in words)” value is “slight reduction in body weight” and the Respiratory distress entry is “respiratory distress was observed”. Besides, in data set [3] (mouse, in vivo, iv), the “Time until all mice appeared normal” value was at most 6 h. Also, the “Acute intravenous toxicity profile (in words)” value in data set [3] (up to 12.0 g/kg) is “relatively safe mouse acute intravenous toxicity profile”. Further, in data set [4], the “Alteration of renal proton images” value is “Marked alteration of renal medulla and renal cortex proton images”; the “Time to peak effects” value was at most 15 min. Also, in data set [5], the “Image differences between normal and infarcted tissues” value was “marked differences between normal and infarcted tissues; also recorded: greater than that observed in hearts from dogs with infarcts who had not received a contrast enhancement agent”; the “T1 image of blood remaining in the ventricles” value was “much different T1 image”.

The values above are taken from US5078986A, “Method for enhancing magnetic resonance imaging using an image altering agent containing an excess of chelating agent” (Mallinckrodt Medical, Inc., priority 1990, dated 1992).
